How the values were obtained:
Format in all cases: cell-based
HL-60 leukemia = experiment: MTT proliferation inhibition, HL-60; settings: Homo sapiens, HL-60, read-out: Proliferation inhibition rate, HL60 Leukemia
Description: (§1) 1. Cytotoxicity Assay Using Human Tumor Cell Lines
(§2) Paclitaxel was used as the positive drug.

B16 melanoma = experiment: MTT proliferation inhibition, B16; settings: B16, read-out: Proliferation inhibition rate, B16 Melanoma
Description: as §1, §2

Du145 prostate cancer = experiment: MTT proliferation inhibition, Du145; settings: Homo sapiens, DU-145, read-out: Proliferation inhibition rate, DU145 Prostate cancer
Description: as §1, §2

[1] = system: MCF-7 breast cancer cells; experiment: MTT proliferation inhibition, MCF-7; settings: Homo sapiens, MCF7, read-out: Proliferation inhibition rate, MCF-7 Breast cancer
Description: as §1, §2

[2] = system: MDA-MB-436 breast cancer cells; experiment: MTT proliferation inhibition, MDA-MB-436; settings: Homo sapiens, MDA-MB-436, read-out: Proliferation inhibition rate, MDA-MB-436 Breast cancer
Description: as §1, §2

K562 leukemia = experiment: MTT proliferation inhibition, K562; settings: Homo sapiens, K562, read-out: Proliferation inhibition rate, K562 Leukemia
Description: as §1, §2

A375 melanoma = experiment: MTT proliferation inhibition, A375; settings: Homo sapiens, A-375, read-out: Proliferation inhibition rate, A375 Melanoma
Description: as §1, §2

CO[C@H]1C[C@H]2OC[C@@]2(OC(C)=O)[C@H]2[C@H](OC(=O)c3ccccc3)[C@]34OC(=O)O[C@H]3[C@H](OC(=O)[C@H](O)[C@@H](NC(=O)OC(C)(C)C)c3ccccc3)C(C)=C([C@@H](OC(=O)N(C)C)C(=O)[C@]12C)C4(C)C [PCMI-08]
inhibition at 1 µM (HL-60 leukemia): 96.8%
inhibition at 1 µM (B16 melanoma): 70.6%
inhibition at 1 µM (Du145 prostate cancer): 86.7%
inhibition at 1 µM [1]: 81.3%
inhibition at 1 µM [2]: 65.7%
inhibition at 1 µM (K562 leukemia): 90.8%
inhibition at 1 µM (A375 melanoma): 92.8%

— US9890175B2, “Taxane compound, and preparation method and use thereof” (JIANGSU TASLY DIYI PHARMACEUTICAL CO., LTD., priority 2013, dated 2018)
